{"source": "patent US9279134B2", "about": "“Methods for isolating bacteria” (DEINOVE, priority 2009, dated 2016)", "key": {"[1]": {"system": "Deinococcus radiopugnans strain DRH40", "test": "Soil sample suspension maintained in presence of bleocin, growth of colonies", "assay_type": "cell-based", "settings": "50 μg/ml bleocin", "protocol": "(§1) Soil samples containing Deinococcus radiopugnans strain DRH40 were placed in suspension under conditions similar to that of example 2. In place of irradiation, the suspensions were maintained in the absence (control) or presence of 50 μg/ml or 100 μg/ml of bleocin."}, "indigenous microflora": {"system": "indigenous microflora", "test": "Soil sample suspension maintained in presence of bleocin, growth of colonies", "assay_type": "cell-based", "settings": "50 μg/ml bleocin", "protocol": "as §1"}}, "data": [{"substance": "bleocin", "values": [{"measurement": "growing pink colonies (Deinococcus)", "setting": "[1]", "value": "pink colonies are present"}, {"measurement": "effect on indigenous microflora", "setting": "indigenous microflora", "value": "decreases drastically"}]}]}
